The values below come from article PMC9287416, “Externalized phosphatidylinositides on apoptotic cells are eat-me signals recognized by CD14” (Cell Death and Differentiation, 2022).

In the assay the target is T1, CD14 (Homo sapiens, UniProt P08571).
T1 construct: full-length human CD14 expressed in HEK293T cells, recombinant; His-tagged protein used in flow cytometry
T1 sequence (P08571 20-345): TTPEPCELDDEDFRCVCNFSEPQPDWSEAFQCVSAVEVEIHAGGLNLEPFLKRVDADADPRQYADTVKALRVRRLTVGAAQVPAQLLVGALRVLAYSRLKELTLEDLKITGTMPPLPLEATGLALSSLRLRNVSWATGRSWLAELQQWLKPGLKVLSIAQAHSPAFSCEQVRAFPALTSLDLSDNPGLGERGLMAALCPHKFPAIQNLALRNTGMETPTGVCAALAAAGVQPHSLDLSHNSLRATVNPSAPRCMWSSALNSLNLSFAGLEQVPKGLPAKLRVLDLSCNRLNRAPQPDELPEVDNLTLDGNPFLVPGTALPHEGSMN
In words: isothermal titration calorimetry. The class given is binding.

Read-outs that look alike come from different tables or passages of the source.

With `O=P(O)(O)O[C@H]1[C@H](OP(=O)(O)O)[C@@H](OP(=O)(O)O)[C@H](OP(=O)(O)O)[C@@H](OP(=O)(O)O)[C@H]1OP(=O)(O)O` [IP6], the affinity, expressed as Kd, was 6.2 ± 1.2 µM.
As to PI(3,4,5)P3, the dissociation constant (Kd) (usually the concentration at which binding is half-saturated) (PI(3,4,5)P3 in liposomes) was found to be 5.6 ± 0.6 µM.
